Read-outs that look alike come from different tables or passages of the source.
What was measured:
[1] = test system: COLO357; assay: MTT cell viability / proliferation assay, COLO357; type: cell-based
Protocol: (§1) More specifically, the tumor cell lines MCF-7, MDA-MB 231 and COLO 357 were maintained in Dulbecco's modifed Eagle's medium (DMEM) with phenol red. […] The cell lines were cultured in a humidified incubator in an atmosphere of 5% CO2 and were maintained in continuous exponential growth by twice a week passage. Adherent cells at a logarithmic phase were detached by addition of 2-3 ml of trypsin (Gibco), 0.02% EDTA mixture and incubation at 37° C. […] Cells were incubated for 24 h at 37° C. to resume exponential growth. The test compounds were dissolved in DMSO (final concentration 0.1%) and added to the cells 24 h after seeding at varying concentrations. Control wells containing the culture medium, were included in each experiment. Cell proliferation was evaluated after 72 h by means of MTT assay. The biological effects of these compounds were studied against the hormone independent breast (BT20) and prostate (PC3) cancers as well as K-ras positive (Colo357) and K-ras negative (B×PC3) pancreatic cancer cell lines.

[2] = target: T1, Akt1/PKBα, active enzyme (Homo sapiens, UniProt P31749); assay: Fluorescence polarization Akt kinase assay; type: biochemical
T1 construct: purchased Upstate Biotechnology 14-276
T1 sequence (P31749 whole entry): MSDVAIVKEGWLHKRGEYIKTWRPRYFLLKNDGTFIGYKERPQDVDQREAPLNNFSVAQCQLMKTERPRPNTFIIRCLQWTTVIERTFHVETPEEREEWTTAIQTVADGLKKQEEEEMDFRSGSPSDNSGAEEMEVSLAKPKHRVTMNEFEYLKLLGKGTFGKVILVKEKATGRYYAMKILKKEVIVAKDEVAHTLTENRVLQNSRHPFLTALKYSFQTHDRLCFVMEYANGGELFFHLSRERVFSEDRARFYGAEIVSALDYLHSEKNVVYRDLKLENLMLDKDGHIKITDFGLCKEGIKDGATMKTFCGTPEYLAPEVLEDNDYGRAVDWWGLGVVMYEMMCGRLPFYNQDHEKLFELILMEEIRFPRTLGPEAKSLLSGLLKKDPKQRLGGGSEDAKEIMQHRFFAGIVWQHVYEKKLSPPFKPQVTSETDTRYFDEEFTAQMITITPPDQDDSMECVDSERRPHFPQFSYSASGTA
Protocol: The serine threonine Akt kinase reaction was carried out in 96 well black plates in a total volume of 100 μl using Ser/Thr kinase polarization based assay kit from Invitrogen Part # P3103. Briefly, the Akt kinase assay reaction was set up in a total volume of 40 μl in the presence of different concentrations of inhibitor. Stock solutions of test compounds were made in DMSO. From DMSO stocks, 4× solutions of test compounds were prepared in 1× assay dilution buffer; 10 μl of this drug solution was used in the assay. […] The plate was incubated at 30° C. for 30 minutes. Enzyme reaction was quenched with 10 μl of 50 mM EDTA for 5 minutes. Anti phosphor serine antibody was added 25 μl/well followed by 10 μl of fluorescent tracer. The total volume was made up to 100 μl by adding 15 μl of fluorescence polarization assay dilution buffer. Appropriate controls and blanks were prepared. The plate was incubated for 1 h at RT and was analyzed for polarization at 435 excitation and 535 emission wavelength on Tecan Ultra microplate reader. Polarization values were normalized to the control and were plotted against log concentration of test compounds using Graph Pad Prism software. Sigmoidal dose response curve analysis was used to calculate the IC50 of test compounds.

[3] = test system: MDA-MB 231; assay: MTT cell viability assay, MDA-MB 231; type: cell-based
Protocol: (§2) The compounds were tested in multiple panels of breast (MCF-7, T47D, BT20 and MDA-MB231), prostate (PC3), and pancreatic (BxPC3, COLO357) cancer cell lines, using the dye 3-[4,5 dimethylthiazol-2-yl]-2,5 diphenyltetrazolium bromide (MTT assay) according to a method described in Banerjee, et al., Cancer Research. 2002 62, 4945.
(§3) More specifically, the tumor cell lines MCF-7, MDA-MB 231 and COLO 357 were maintained in Dulbecco's modifed Eagle's medium (DMEM) with phenol red. Cell lines T47D, BT20, PC3 and BxPC3 were routinely cultured in RPMI medium, each medium being supplemented with Penicillin (50U/ml), Streptomycin (50 μg/ml) and 10% fetal calf serum (FCS) (Gibco, Myclone). The cell lines were cultured in a humidified incubator in an atmosphere of 5% CO2 and were maintained in continuous exponential growth by twice a week passage.
(§4) Adherent cells at a logarithmic phase were detached by addition of 2-3 ml of trypsin (Gibco), 0.02% EDTA mixture and incubation at 37° C. Cells were plated (100 μL per well) in 48 well flat bottom microtiter plates at densities of 2000 to 5000 per cm^2 (MCF-7, MDA-MB321, T47D, BT20, PC3, B×PC3, COLO357) cells per well. Cells were incubated for 24 h at 37° C. to resume exponential growth. The test compounds were dissolved in DMSO (final concentration 0.1%) and added to the cells 24 h after seeding at varying concentrations. Control wells containing the culture medium, were included in each experiment. Cell proliferation was evaluated after 72 h by means of MTT assay.

[4] = test system: BT20; assay: MTT cell viability / proliferation assay, BT20; type: cell-based
Protocol: as §1

[5] = test system: breast, prostate and pancreatic cancer cell lines; assay: MTT assay, statements over several cancer cell lines; type: cell-based
Protocol: as §2, §3, §4
The biological effects of these compounds were studied against the hormone independent breast (BT20) and prostate (PC3) cancers as well as K-ras positive (Colo357) and K-ras negative (B×PC3) pancreatic cancer cell lines.

[6] = test system: BxPC3; assay: MTT cell viability / proliferation assay, BxPC3; type: cell-based
Protocol: as §1

[7] = test system: MCF-7; assay: MTT cell viability assay, MCF-7; type: cell-based
Protocol: as §2, §3, §4

[8] = test system: PC3; assay: MTT cell viability / proliferation assay, PC3; type: cell-based, human
Protocol: as §1

[9] = test system: PC3 cells; assay: Western blot of Akt, p-Akt and PARP in PC3 cells; type: cell-based, human; conditions: 10 and 20 μM, 72 h
Protocol: Control cells were incubated in the medium with Na2CO3 using same time point. After incubation the cells were lysed with This-HCl (62.5 mm) and 2% SDS. Protein concentration was then measured using […] protein assay (Pierce Chemical Co., Rockford, Ill.). Cell extracts were subjected to 10% SDS-PAGE and electrophoretically transferred to nitrocellulose membrane. Membranes were then incubated with monoclonal anti-Akt (epitome: amino acids 345-480 of Akt1, 1:500; Ontogeny, 26. San Diego, Calif.), anti-phosphor-Akt Ser473 (1:1000; Cell Signaling, Beverly, Mass.), primary monoclonal anti-PARP antibody (1:5000; Biomol, Plymouth Meeting, Pa.) and anti-β-actin (1:5000; Sigma) antibodies, washed with TTBS, and incubated with secondary antibody conjugated with peroxidase. The signal was then detected using the chemiluminescent detection system (Pierce, Rockford, Ill.).

[10] = test system: vascular endothelial growth factor (VEGF); assay: VEGF ELISA in BxPC3 cells; type: cell-based, human; conditions: 10 μM, 20 μM, 72 h
Protocol: B×PC3 cells (0.1×10^6/well) were plated into 6-well plates and incubated in supplemented RPMI containing 10% FBS.

[11] = test system: T47D; assay: MTT cell viability assay, T47D; type: cell-based; conditions: 72 h
Protocol: as §2, §3
Adherent cells at a logarithmic phase were detached by addition of 2-3 ml of trypsin (Gibco), 0.02% EDTA mixture and incubation at 37° C. Cells were plated (100 μL per well) in 48 well flat bottom microtiter plates at densities of 2000 to 5000 per cm^2 (MCF-7, MDA-MB321, T47D, BT20, PC3, B×PC3, COLO357) cells per well. Cells were incubated for 24 h at 37° C. to resume exponential growth. […] Cell proliferation was evaluated after 72 h by means of MTT assay.

[12] = test system: breast cancer cell line (T47D); assay: Propidium iodide / Hoechst 33342 staining, apoptosis and cell viability; type: cell-based
Protocol: To provide further evidence of apoptosis, we carried out phase contrast microscopy using a mixture of propidium iodide (PI) and Hoechst dye 33342 to determine the integrity of cell membranes of cancer cells. The quantification of the apoptosis was carried out by cell count after staining with PI followed by visualization of treated cells by fluorescence analysis. […] After 5 minutes at 37° C. the cells were placed under a fluorescence microscope (Nikon Optiphot) with a filter block giving excitation at 380 nm and 480 nm.

[13] = test system: COLO 357 cells; assay: Orthotopic pancreatic tumor model using COLO 357 cells; type: in vivo
Protocol: The redox sensitive transcription factor NF-kB, is downstream of the Akt kinase protein and plays major role in the cell proliferation and metastasis and resistance in major cancers such as breast, prostate and pancreatic. […] Nuclear proteins were extracted from the tumor tissue as described previously (see, for example, Banerjee, et al, Cancer Research, Vo. 65, p. 9064 (2005)) and kept at −70° C. until use. Protein concentration was determined using the bicinchonic acid assay kit with BSA as the standard (Pierce Chemical Co., Rockford, Ill.). The incubation mixture included 25 mM DTT and 2.5% Tween 20 in a binding buffer. The DNA-protein complex formed was separated from free oligonucleotide on 8.0% native polyacralyamide gel using buffer containing 50 mM Tris, 200 mm glycine, pH 8.5, and 1 mM EDTA, and then visualized by Odyssey Infrared Imaging System using Odyssey Software Release 1.1.
Since the NF-κB pathway is regulated by Akt protein, the effects of the FPA-124 on NF-κB activity was studied in an in vivo experiment, specifically the well-established orthotopic pancreatic tumor model using COLO 357 cells.

[14] = test system: Colo357, BxPC3, BT20, and PC3 cells; assay: Cell Death Detection ELISA apoptosis assay; type: cell-based; conditions: FPA-124, FPA-125, FPA-127 compared
Protocol: To determine whether the metal conjugates induce apoptosis in tumor cells, quantitative evaluation of apoptosis was carried out with a Cell Death Detection ELISA kit (Roche, Palo Alto, Calif.). Apoptosis was detected according to the protocol supplied by the manufacturer.
Since all copper compounds are redox active metal conjugates, we believe that redox triggered oxidative stress may be one of the underlying mechanisms for the observed apoptotic cell death in the present case. […] This observation is also in accordance with the favorable distortion factor calculated for the present copper compounds using EPR spectra, which factor helps stabilize cuprous and cupric species without dissociation of the conjugate.

[15] = 72 h, Table 1, read-out: MTT cell viability assay IC50 COLO357
[16] = 72 h, Table 1, read-out: MTT cell viability assay IC50 BT20
[17] = 72 h, Table 1, read-out: MTT cell viability assay IC50 BxPC3
[18] = FPA-102 25 mg/kg wt, i.v. on alternate days
[19] = 72 h, Table 1, read-out: MTT cell viability assay IC50 PC3

Compound: CC(=O)C1CCC2C3CCC4=CC(=NNC(N)=S)CCC4(C)C3CCC12C (stereo not drawn) [FPA-101, 17-acetyl-10,13-dimethyl-1,2,6,7,8,9,11,12,13,14,15,16,17-tetradecahydrocyclopenta[a]phenantnren-3-thiosemicarbazone]
- IC50 ([1]; Homo sapiens, COLO357, 72 h, Table 1, read-out: MTT cell viability assay IC50 COLO357): 13 µM
- concentration inhibiting Akt kinase activity [2]: higher concentration
- IC50 ([3]; Homo sapiens, MDA-MB-231, 72 h): 25 µM
- IC50 ([4]; Homo sapiens, BT-20, 72 h, Table 1, read-out: MTT cell viability assay IC50 BT20): 53 µM
- antiproliferative action against the cell lines tested ([5]; cell lines of Table 1): moderate antiproliferative action
- IC50 ([6]; Homo sapiens, BXPC-3, 72 h, Table 1, read-out: MTT cell viability assay IC50 BxPC3): 5 µM
- IC50 ([7]; Homo sapiens, MCF7, 72 h): 20 µM
- IC50 ([8]; Homo sapiens, PC-3, 72 h, Table 1, read-out: MTT cell viability assay IC50 PC3): 16 µM

Compound: CC(=O)C1CCC2C3CCC4=CC(=NNC(N)=S)CCC4(C)C3CCC12C.[Cl][Cu][Cl] (stereo not drawn) [FPA-102]
- PARP degradation, Western blot [9]: induces poly (ADP-ribose) polymerase degradation
- phosphor-Akt, Western blot [9]: down regulates
- IC50 [1, 15]: 9 µM
- IC50 ([3]; 72 h): 11 µM
- VEGF levels [10]: decrease in the VEGF levels
- IC50 [11]: 5 µM
- apoptotic cells ([12]; IC50 concentration, 24-48 h treatment): ~95%
- non-viable cells ([12]; IC50 concentration, 3 h incubation): 40%
- cell death by uptake of propidium iodide ([12]; T47D, 10 μM, 72 hours): cells undergoing cell death by uptake of propidium iodide
- IC50 [4, 16]: 13 µM
- IC50 ([5]; MCF-7, MDA-MB 231, T47D, BT20, PC3, BxPC3, COLO357, read-out: IC50 values, range over the cell lines of Table 1): 5 to 13 µM
- IC50 [6, 17]: 12.7 µM
- body weight of treated mice vs control (toxicity) [13, 18]: no significant change in the body weight
- tumor burden [13, 18]: decrease tumor burden
- NF-κB in tumor tissue (EMSA) ([13]; treatment for 10 days, once every alternate day): down-regulation of NF-κB
- tumor histology ([13]; tumor from treated mice): marked necrosis and apoptosis
- viable part of tumor mass, histology ([13]; tumor from treated mice): 20%
- IC50 ([7]; 72 h): 6 µM
- IC50 [8, 19]: 9 µM

Compound: CC(=O)C1CCC2C3CCC4=CC(=NNC(N)=S)CCC4(C)C3CCC12C.[Cl][Ni][Cl] (stereo not drawn) [FPA-103]
- IC50 [1, 15]: 20 µM
- concentration inhibiting Akt kinase activity [2]: higher concentration
- IC50 [4, 16]: > 100 µM
- IC50 ([7]; 72 h): 7.5 µM
- IC50 [8, 19]: > 100 µM

Compound: CC(=O)C1CCC2C3CCC4=CC(=NNC(N)=S)CCC4(C)C3CCC12C.[Cl][Pt][Cl] (stereo not drawn) [FPA-104]
- IC50 [1, 15]: 7.3 µM
- concentration inhibiting Akt kinase activity [2]: higher concentration
- IC50 ([3]; 72 h): 34 µM
- IC50 [4, 16]: 18 µM
- IC50 [6, 17]: 5 µM
- IC50 ([7]; 72 h): 22 µM
- IC50 [8, 19]: 18 µM

Compound: NC1=[S+][Cu-2]([Cl])([Cl])[N+](=Cc2coc3ccccc3c2=O)N1 [FPA-124]
- apoptosis by ELISA, rank among metal conjugates [14]: most active compound
- IC50 ([1]; Table 2, read-out: MTT Cell Proliferation Assay IC50 COLO357): 34 µM
- IC50 ([2]; read-out: Akt kinase activity IC50): 0.1 µM
- IC50 ([4]; read-out: concentration for 50% cell kill, BT20 cells): 7 µM
- IC50 ([6]; Table 2, read-out: MTT Cell Proliferation Assay IC50 BxPC3): 55 µM
- NF-κB activity in tumor tissue (EMSA) ([13]; FPA-124 study): significantly decreased
- body weight of the treated animals (toxicity) ([13]; FPA-124 study): no change in the body weight
- tumor load (pancreas weight) ([13]; FPA-124 study): decrease in the tumor load
- IC50 ([8]; read-out: concentration for 50% cell kill, PC3 cells): 10 µM

Compound: O=c1c(-c2ccc(O)cc2)coc2cc(O)cc(O)c12 [Genistein, 4,5,7,-trihydroxyisoflavone, reference compound]
- IC50 ([1]; Homo sapiens, COLO357, Table 2, read-out: MTT Cell Proliferation Assay IC50 COLO357): 50 µM
- IC50 ([2]; Table 2, read-out: Fluorescence Polarization Akt kinase Assay IC50): > 70 µM
- IC50 ([4]; Homo sapiens, BT-20, Table 2, read-out: MTT Cell Proliferation Assay IC50 BT20): 46 to 70 µM
- IC50 ([5]; Pancreatic cancer cell, Colo357, BxPC3, BT20, PC3, read-out: IC50 values in these multiple cancer cell lines): > 40 µM
- IC50 ([6]; Homo sapiens, BXPC-3, Table 2, read-out: MTT Cell Proliferation Assay IC50 BxPC3): 30 µM
- IC50 ([8]; Homo sapiens, PC-3, Table 2, read-out: MTT Cell Proliferation Assay IC50 PC3): 50 µM
